Paper PMC12040169 (PLOS Biology, 2025)

Experiment: in vitro
Conditions: human, hela cells, % viability

Structure (SMILES)	viability at 28.5 h, 10 µM [%]
COc1ccc([C@@]23CCC(NC(=O)Nc4ccc5c(c4)Cc4ccccc4-5)C[C@@H]2N(C)CC3)cc1OC (some centres unmarked) [CBK047550T]	85.9
COc1ccc([C@@]23CCC(NC(=O)Nc4ccc(OCc5ccccc5)cc4)C[C@@H]2N(C)CC3)cc1OC (some centres unmarked) [CBK047551T]	105
Cc1oc(-c2ccc(Cl)cc2)cc1C(=O)CC#N [CBK047603]	85.4
CN(C)C(=O)c1ccc(Cn2nc(C(=O)NCCOc3ccccc3)c3ccccc32)cc1 [CBK047700]	91.7
C#CCNC(=O)c1nn(Cc2ccc(S(=O)(=O)N(C)OC)cc2)c2ccccc12 [CBK047985]	96.2
COc1ccc(Cn2nc(NS(=O)(=O)c3ccc(-c4ccon4)s3)c3ccccc32)cc1 [CBK048031]	92.9
COc1cccc(S(=O)(=O)Nc2nn(Cc3ccc(C)cc3)c3ccccc23)c1 [CBK048043]	89.8
O=S(=O)(Nc1nn(Cc2ccc(C(F)(F)F)cc2)c2ccccc12)c1cccc2nsnc12 [CBK048086]	94.8
COc1ccc(Cn2nc(NC(C)=O)c3ccccc32)cc1 [CBK048200]	109
Cc1ccc(Cn2nc(NC(=O)c3cc(C)on3)c3ccccc32)cc1 [CBK048215]	90.8
COc1ccc(Cn2nc(NC(=O)c3cnc4ccccc4n3)c3ccccc32)cc1 [CBK048343]	93
COc1ccc(Cn2nc(NC(=O)c3cn(C)c4ccccc34)c3ccccc32)cc1 [CBK048344]	57.2
O=C(Cc1ccc2c(c1)OCO2)Nc1nn(Cc2ccc(C(F)(F)F)cc2)c2ccccc12 [CBK048401]	115
CCc1cc(OCc2ccc(Cn3nc(NC(C)=O)c4ccccc43)cc2)c2ccccc2n1 [CBK048402]	91
COCCOc1cccc(OCCOc2nccnc2N2CCNC[C@H]2C)c1 [CBK048435]	104
O=C(NCc1ccco1)c1nn(-c2nc3ccccc3s2)c2ccccc12 [CBK048482]	97.4
C#CCNC(=O)c1nn(-c2nc3ccccc3s2)c2ccccc12 [CBK048486]	99.2
Cc1cc(NC(=O)c2nn(-c3nc4ccccc4s3)c3ccccc23)no1 [CBK048489]	95.4
O=C(NCCOc1ccccc1)c1nn(-c2ncccn2)c2ccccc12 [CBK048494]	81
O=C(NCCc1c[nH]c2ccccc12)c1nn(-c2ncccn2)c2ccccc12 [CBK048496]	77.7
O=C(NCc1ccncc1)c1nn(-c2ncccn2)c2ccccc12 [CBK048498]	93.1

Structure (SMILES)	viability at 28.5 h, 10 µM [%]
O=C(NC1CC1)c1nn(-c2ncccn2)c2ccccc12 [CBK048508]	88
O=C(Nc1ccc(OC(F)(F)F)cc1)c1nn(-c2ncccn2)c2ccccc12 [CBK048510]	98.9
O=C(Nc1ccon1)c1nn(-c2ncccn2)c2ccccc12 [CBK048513]	95.3
COc1ccc(Cn2nc(NC(=O)Nc3c(C)noc3C)c3ccccc32)cc1 [CBK048528]	88.9
COc1ccc(Cn2nc(NC(=O)Nc3ccc(N(C)C)cc3)c3ccccc32)cc1 [CBK048529]	90
CN(C)C(=O)c1ccc(Cn2nc(NC(=O)OCc3ccccc3)c3ccccc32)cc1 [CBK048578]	89.6
CS(=O)(=O)Nc1nccnc1N1CCN(c2ccccc2)CC1 [CBK048688]	91.8
COc1cc(OC)nc(N2CCN(c3nccnc3NS(=O)(=O)C3CC3)CC2)n1 [CBK048698]	109
O=S(=O)(Nc1nccnc1N1CCN(c2ccccc2)CC1)c1ccc(F)cc1 [CBK048706]	94.2
CCCS(=O)(=O)Nc1nccnc1N1CCN(c2ccc3c(c2)OCO3)CC1 [CBK048824]	93.6
CCCS(=O)(=O)Nc1nccnc1N1CCN(c2cnccn2)CC1 [CBK048828]	85.5
Cc1cc(C)cc(NC(=O)N2CCN(c3nccnc3NS(C)(=O)=O)CC2)c1 [CBK048877]	105
CNC(=S)N1CCN(c2nccnc2NS(=O)(=O)Cc2ccccc2)CC1 [CBK049044]	102
COCc1ccc(-c2nccnc2NS(C)(=O)=O)cc1 [CBK049631]	101
O=S(=O)(Nc1nccnc1N1CCN(c2cnccn2)CC1)c1ccc(Cl)cc1 [CBK049664]	88.1
COc1cc([C@@]23CCC(=O)C[C@@H]2N(C)CC3)ccc1OCc1ccccc1 [CBK049727]	106
COc1ccccc1CN(CC1CCNCC1)C(=O)NC(c1ccccc1)c1ccccc1 [CBK049741]	115
O=C(Nc1ccccc1C(F)(F)F)N(Cc1ccccc1C(F)(F)F)CC1CCNCC1 [CBK049744]	112
CC(C)(C)c1ccc(NC(=O)N(Cc2ccccc2C(F)(F)F)CC2CCNCC2)cc1 [CBK049752]	86.7
O=C(NCc1ccccc1Cl)N(Cc1cccc(Cl)c1)CC1CCNCC1 [CBK049762]	80.4
